Experimental data published in patent publication US20080153896A1, “Polymorphic Forms of an HMG-CoA Reductase Inhibitor and Uses Thereof” (priority 2006, published 2008).

Experiment: Stability (integrity) testing of amorphous and polymorphic form under storage conditions, RP-HPLC
Assay type: physicochemical
Design: key to Impurity RRT 0.738 / Impurity RRT 0.949 / Impurity RRT 1.050 / Impurity RRT 1.550 / Impurity RRT 0.136 / Impurity RRT 0.720 / Impurity RRT 0.706 / Impurity RRT 1.18 / Impurity RRT 1.826: % of total UV absorption (HPLC peak area)
Procedure: The integrity of the different forms of the (3R, 5R)-7-[2-(4-fluorophenyl)-5-isopropyl-3-phenyl-4-[(4-hydroxymethylphenylamino)carbonyl]-pyrrol-1-yl]-3,5-dihydroxy-heptanoic acid, hemi calcium salt, was tested under different atmospheric conditions to determine the stability of the amorphous and polymorphic form of the drug in various storage environments. Reversed Phase-HPLC (RP-HPLC) was used to separate (3R, 5R)-7-[2-(4-fluorophenyl)-5-isopropyl-3-phenyl-4-[(4-hydroxymethylphenylamino)carbonyl]-pyrrol-1-yl]-3,5-dihydroxy-heptanoic acid, hemi calcium salt, from smaller molecules representing breakdown products as well as oxidized drug. The relative amount of the drug was reported as a percent of total absorption by UV. The total peak area of all UV absorption impurities was used to define total impurity of the drug. Impurities are defined by their relative retention time (RRT) compared to native drug. Samples were injected onto a C18 column using standard temperature, gradient and run-time conditions.
The results of this integrity testing for the amorphous form of (3R, 5R)-7-[2-(4-fluorophenyl)-5-isopropyl-3-phenyl-4-[(4-hydroxymethylphenylamino)carbonyl]-pyrrol-1-yl]-3,5-dihydroxy-heptanoic acid, hemi calcium salt, is shown in Table 5.
Three separate batches of polymorphic Form I of (3R, 5R)-7-[2-(4-fluorophenyl)-5-isopropyl-3-phenyl-4-[(4-hydroxymethylphenylamino)carbonyl]-pyrrol-1-yl]-3,5-dihydroxy-heptanoic acid, hemi calcium salt, were prepared and tested under the same atmospheric conditions described for the amorphous form.

[1] = 25° C./60% RH 12M, hemi calcium salt
[2] = 30° C./65% RH 1M, hemi calcium salt
[3] = 30° C./65% RH 2M, hemi calcium salt
[4] = 30° C./65% RH 3M, hemi calcium salt
[5] = 30° C./65% RH 6M, hemi calcium salt
[6] = 30° C./65% RH 9M, hemi calcium salt
[7] = 30° C./65% RH 12M, hemi calcium salt
[8] = 40° C./75% RH 1M, hemi calcium salt
[9] = 40° C./75% RH 2M, hemi calcium salt
[10] = 40° C./75% RH 3M, hemi calcium salt
[11] = 40° C./75% RH 6M, hemi calcium salt
[12] = Initial, listed as Batch 1 of Polymorphic Form I, hemi calcium salt

## CC(C)c1c(C(=O)Nc2ccc(CO)cc2)c(-c2ccccc2)c(-c2ccc(F)cc2)n1CC[C@@H](O)C[C@@H](O)CC(=O)[O-].CC(C)c1c(C(=O)Nc2ccc(CO)cc2)c(-c2ccccc2)c(-c2ccc(F)cc2)n1CC[C@@H](O)C[C@@H](O)CC(=O)[O-].[Ca+2] [PP00405, (3R, 5R)-7-[2-(4-fluorophenyl)-5-isopropyl-3-phenyl-4-[(4-hydroxymethylphenylamino)carbonyl]-pyrrol-1-yl]-3,5-dihydroxy-heptanoic acid, hemi calcium salt]
[1]
  Highest Impurity: 0.412
  Impurity RRT 0.935: 0.412
  Impurity RRT 1.045: 0.396
  Impurity RRT 1.640: 0.051
  Total Impurity: 1.318
  Water: 5.47 % W/W
30° C./65% RH 1M
  Description: White
  Impurity RRT 1.094: 0.149
  Impurity RRT 1.437: 0.161
  Impurity RRT 1.593: 0.061
  Impurity RRT 1.694: 0.060
  Water: 4.16 % W/W
[2]
  Assay: 98.25 % W/W
  Highest Impurity: 0.370
  Impurity RRT 0.935: 0.370
  Impurity RRT 1.045: 0.300
  Impurity RRT 1.64: 0.047
  Total Impurity: 1.228
30° C./65% RH 2M
  Description: White
  Impurity RRT 1.094: 0.16
  Impurity RRT 1.180: 0.044
  Impurity RRT 1.437: 0.163
  Impurity RRT 1.593: 0.080
  Impurity RRT 1.694: 0.062
[3]
  Assay: 98.23 % W/W
  Highest Impurity: 0.390
  Impurity RRT 0.935: 0.390
  Impurity RRT 1.045: 0.374
  Impurity RRT 1.64: 0.044
  Total Impurity: 1.320
  Water: 3.85 % W/W
30° C./65% RH 3M
  Description: White
  Impurity RRT 1.094: 0.167
  Impurity RRT 1.437: 0.168
  Impurity RRT 1.593: 0.081
  Impurity RRT 1.694: 0.066
[4]
  Assay: 98.15 % W/W
  Highest Impurity: 0.416
  Impurity RRT 0.935: 0.416
  Impurity RRT 1.045: 0.405
  Impurity RRT 1.64: 0.048
  Total Impurity: 1.350
  Water: 4.73 % W/W
30° C./65% RH 6M
  Description: White
  Impurity RRT 0.136: 0.049
  Impurity RRT 1.094: 0.140
  Impurity RRT 1.437: 0.150
  Impurity RRT 1.593: 0.077
  Impurity RRT 1.694: 0.044
[5]
  Assay: 98.08 % W/W
  Highest Impurity: 0.361
  Impurity RRT 0.935: 0.355
  Impurity RRT 1.045: 0.361
  Impurity RRT 1.640: 0.042
  Total Impurity: 1.218
  Water: 5.62 % W/W
30° C./65% RH 9M
  Description: White
  Impurity RRT 0.136: 0.056
  Impurity RRT 1.094: 0.134
  Impurity RRT 1.437: 0.147
  Impurity RRT 1.593: 0.080
  Impurity RRT 1.694: 0.051
[6]
  Assay: 98.15 % W/W
  Highest Impurity: 0.387
  Impurity RRT 0.935: 0.387
  Impurity RRT 1.045: 0.351
  Impurity RRT 1.640: 0.033
  Total Impurity: 1.239
  Water: 5.55 % W/W
30° C./65% RH 12M
  Impurity RRT 0.136: 0.240
  Impurity RRT 1.094: 0.120
  Impurity RRT 1.437: 0.148
  Impurity RRT 1.593: 0.075
  Impurity RRT 1.694: 0.055
[7]
  Assay: 98.09 % W/W
  Highest Impurity: 0.375
  Impurity RRT 0.935: 0.375
  Impurity RRT 1.045: 0.372
  Impurity RRT 1.640: 0.044
  Total Impurity: 1.492
  Water: 5.91 % W/W
40° C./75% RH 1M
  Description: White
  Impurity RRT 1.094: 0.167
  Impurity RRT 1.437: 0.155
  Impurity RRT 1.593: 0.085
  Impurity RRT 1.694: 0.071
[8]
  Assay: 98.22 % W/W
  Highest Impurity: 0.405
  Impurity RRT 0.935: 0.405
  Impurity RRT 1.045: 0.39
  Impurity RRT 1.64: 0.05
  Total Impurity: 1.323
  Water: 4.52 % W/W
40° C./75% RH 2M
  Description: White
  Impurity RRT 1.094: 0.164
  Impurity RRT 1.180: 0.049
  Impurity RRT 1.437: 0.169
  Impurity RRT 1.593: 0.082
  Impurity RRT 1.694: 0.067
[9]
  Assay: 98.16 % W/W
  Highest Impurity: 0.408
  Impurity RRT 0.935: 0.407
  Impurity RRT 1.045: 0.408
  Impurity RRT 1.64: 0.046
  Total Impurity: 1.39
  Water: 4.63 % W/W
40° C./75% RH 3M
  Description: White
  Impurity RRT 1.094: 0.162
  Impurity RRT 1.437: 0.167
  Impurity RRT 1.593: 0.094
  Impurity RRT 1.694: 0.056
[10]
  Assay: 98.11 % W/W
  Highest Impurity: 0.403
  Impurity RRT 0.935: 0.403
  Impurity RRT 1.045: 0.396
  Impurity RRT 1.64: 0.049
  Total Impurity: 1.330
  Water: 4.64 % W/W
40° C./75% RH 6M
  Description: White
  Impurity RRT 1.094: 0.146
  Impurity RRT 1.437: 0.151
  Impurity RRT 1.593: 0.098
  Impurity RRT 1.694: 0.074
[11]
  Assay: 98.22 % W/W
  Highest Impurity: 0.391
  Impurity RRT 0.935: 0.391
  Impurity RRT 1.045: 0.351
  Impurity RRT 1.640: 0.031
  Total Impurity: 1.242
  Water: 5.55 % W/W
Initial
  Description: White
  Impurity RRT 0.720: 0.046
  Impurity RRT 1.094: 0.142
  Impurity RRT 1.437: 0.162
  Impurity RRT 1.593: 0.079
  Impurity RRT 1.694: 0.068
[12]
  Assay: 98.48 % W/W
  Highest Impurity: 0.411
  Impurity RRT 1.045: 0.385
  Impurity RRT 1.64: 0.046
  Total Impurity: 1.340
  Water: 4.55 % W/W
